Residues, ends and D or L forms follow the SMILES beside them.
Legend:
PIK3R3-C SH2 domain [1] = target: T1, PIK3R3-C SH2 domain (Homo sapiens, UniProt Q92569); assay: biochemical; type: binding; details: FP, PIK3R3-C; mean; NA = no interaction detected
T1 construct: thioredoxin; made in house; host or cells: E. coli BL21(DE3)pLysS

PLCG1-C SH2 domain [2] = target: T2, PLCG1-C SH2 domain (Homo sapiens, UniProt P19174); assay: biochemical; type: binding; details: FP, PLCG1-C; mean; NA = no interaction detected
T2 construct: The 6X His-tagged SH2 domain proteins used in the assay, PLCG1-C, SHC4, VAV2; thioredoxin; made in house; host or cells: E. coli BL21(DE3)pLysS
T2 sequence (P19174 668-756 limits assumed): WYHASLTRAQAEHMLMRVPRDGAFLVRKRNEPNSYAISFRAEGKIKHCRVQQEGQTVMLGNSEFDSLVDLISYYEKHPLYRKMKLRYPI

PIK3R3-C SH2 domain [3] = target: T1, PIK3R3-C SH2 domain; assay: Surface plasmon resonance (Biacore 3000); type: binding; details: SPR, NA = no interaction detected
Protocol: (§1) All SPR experiments were performed using Biacore 3000 (GE HealthCare, Piscataway, NJ) instrumentation. 6X His-tagged SH2 domain proteins were immobilized on a nitriloacetic acid (NTA) sensor chip (GE HealthCare, Piscataway, NJ) charged with Ni^2+ ions. Dye-free ErbB family peptides were applied to the sensor chip in a single flow cell in solution phase (while the other flow cell was used as a reference control) and binding events were measured under equilibrium conditions. FP false positive [drawing 7] (FPR), false discovery [drawing 8] (FDR), and false negative [drawing 9] (FNR) rates were calculated by defining true positives (TP) as interactions detected by both FP and SPR, true negatives (TN) as interactions detected by neither FP nor SPR; false positives as interactions identified by FP but not validated by SPR; and false negatives (FN) as interactions missed by FP but detected by SPR. Additional details for all methods are provided in the Supplementary Methods.
(§2) A randomly selected set of 12 recombinant SH2 domain proteins and unlabeled (rhodamine dye free) peptides (9 ErbB, 2 GAB1, 2 KIT, 2 MET) were generated for the surface plasmon resonance (SPR) validation study. The 6X His-tagged SH2 domain proteins used in the assay, PLCG1-C, SHC4, VAV2, TNS3, PIK3R3-C, SYK-C, PIK3R1-N, SUPT6H, CRKL, TEC, SHB, and SHC3 were produced and purified as previously described (see “SH2 and PTB domain proteins” section and Jones et al., 2006). Fresh protein stocks were generated so as to avoid bias incurred from proteins previously used in the FP assays. 13-mer peptides corresponding to ErbB1 pY801, ErbB1 pY900, ErbB1 pY978, ErbB1 pY1069, ErbB2 pY685, ErbB pY803, ErbB3 pY912, ErbB4 pY833, ErbB4 pY906, GAB1 pY183, GAB1 pY472, KIT pY570, KIT pY936, MET pY1093 and MET pY1313, were synthesized successfully for the assay using previously described approaches (see “FP competitor peptide synthesis” section). For SPR detection via the Biacore 3000 (GE HealthCare, Piscataway, NJ), His-tagged SH2 domains were immobilized on Biacore NTA sensor chips (GE HealthCare, Piscataway, NJ) pre-charged with Ni^2+ ions in one flow cell while the second served as a negative control reference cell. Peptides were introduced in solution phase to both cells and relative response units (RUs) were recorded from output sensograms. Nine concentrations of peptide and a buffer control, in duplicate, were used to determine KDs using the equilibrium method (best-fit simultaneous modeling for peptide association and disassociation curves).

PLCG1-C SH2 domain [4] = target: T2, PLCG1-C SH2 domain; assay: Surface plasmon resonance (Biacore 3000); type: binding; details: SPR, NA = no interaction detected
Protocol: as §1, §2

[5] = system: 93 human SH2 domains and 2 phosphotyrosine binding (PTB) domains; assay: FP saturation binding assay, whole domain panel (protein named per line or not at all)
Protocol: (See Figure 1A) Rhodamine-labeled peptides were dissolved in assay buffer (20 mM HEPES, 100 mM KCl, 0.1% Tween-20, 5 mM DTT, pH 7.8), diluted to a concentration of 20 nM, and plated into black 384-well plates (Corning, Corning, NY) at 5 µL/well using a Perkin Elmer EP3 pipetting workstation (V&P Scientific, Inc., San Diego, CA). SH2, PTB, and thioredoxin control proteins were plated into the first column of 2 mL 96-well plates (Corning) at a concentration of 20 µM and serially diluted 1∶2 into freezing buffer (300 mM NaCl, 50 mM Na2PO4, pH 8, 20% glycerol v/v) eleven times using a Tecan Freedom EVO 100 workstation (Tecan, Männedorf, Switzerland). For the interaction assay, 5 µL of each of the twelve protein concentrations was added to the peptide-containing 384-well plates via the EP3 resulting in a protein dilution range of 0.002–10 µM and a final volume of 10 µL; peptide concentration was fixed at 10 nM. Peptide/protein samples were incubated for 20 minutes at room temperature in the dark and fluorescence polarization (FP) was measured in an Analyst GT multimode reader (Molecular Devices, Sunnyvale, CA) with excitation and emission wavelengths of 530 nm and 555 nm, respectively. Experimental values were output as millipolarization (mP) units and imported into MATLAB (The MathWorks, Inc., Natick, MA) in which equation (1) was used to determine dissociation constants (KDs) for each protein/peptide pairing by least squares nonlinear regression. [drawing 1] (1)
To scale up the number of interaction measurements while minimizing variation introduced by human intervention, we utilized an automated robotic platform (Figure 1A; see experimental procedures and Supplementary Methods) to transfer, incubate, and measure the fluorescence polarization (FP) induced from interactions of a titration series of SH2 domains with synthetic rhodamine-labeled ErbB phosphopeptides. Experimental values were output as millipolarization (mP) units and equation (1) was used to fit apparent midpoint dissociation constants (KDs) for each protein/peptide pair using non-linear regression (see experimental procedures).
For this interaction analysis, we synthesized and queried the interaction of phosphopeptides corresponding to 89 of 92 ErbB family intracellular tyrosines with 93 SH2 domains. Because nine peptide sequences share 100% identity between the receptors in the 4 to 7 amino acids C-terminal to the phosphorylated tyrosine, our peptide set consisted of 81 phosphopeptides corresponding to the 89 unique tyrosine containing sequences (Table S2). This peptide set represents a 50% increase over the three PM studies performed to date. We were therefore able to obtain a more systematic and unbiased view of the relative SH2 domain recruitment potential of each receptor. Although most ErbB receptor auto-phosphorylation sites have been detected frequently by mass spectrometry because of their high relative modification stoichiometry, non-auto-phosphorylation sites have been reported less frequently in the literature (Table S3). We reasoned that many physiologically relevant and uncharacterized ErbB tyrosines of low phosphorylation stoichiometry may exist and that our comprehensive interaction analysis might implicate their importance in mediating physiological interactions. We tested the majority of interactions (7099/8160 (87.0%); Figure S3) three or more times and reported standard error for all interactions that were detected in at least three FP runs (Table S4). […] Analysis of this polarization data may be useful for inferring how SH2 proteins bind to different peptide sequences. Larger proteins and proteins binding closer to the N-terminal rhodamine tag of a given peptide would be expected to induce higher maximal polarization (the calculated maximal polarization value at infinite protein concentration) than proteins binding farther from the tag. In addition to phosphopeptides, we queried a representative set of 27 non-phosphopeptides against the entire domain set. […]

TENC1 SH2 domain = assay: FP saturation binding assay; details: Tensin family SH2 domains
TNS1 SH2 domain = target: T3, TNS1 SH2 domain (Homo sapiens, UniProt Q9HBL0); assay: FP saturation binding assay; details: Tensin family SH2 domains
T3 sequence (Q9HBL0 1567-1676 limits assumed): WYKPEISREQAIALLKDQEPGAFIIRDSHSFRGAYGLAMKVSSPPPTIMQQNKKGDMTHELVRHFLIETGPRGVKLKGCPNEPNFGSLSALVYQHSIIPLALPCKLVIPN

TNS3 SH2 domain = target: T4, TNS3 SH2 domain (Homo sapiens, UniProt Q68CZ2); assay: FP saturation binding assay; details: FP saturation assay; Tensin family SH2 domains
T4 sequence (Q68CZ2 1172-1282 limits assumed): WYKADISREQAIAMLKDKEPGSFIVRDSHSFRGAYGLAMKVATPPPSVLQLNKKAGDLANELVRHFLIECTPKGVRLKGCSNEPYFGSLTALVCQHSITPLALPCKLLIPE

SH2 and PTB domains = details: protein SYK-N; ref Kaushansky et al. Mol Biosys 2008; cited from earlier work
Source text: Supplement pone.0044471.s022.xlsx, sheet "Most recent PM interactions" | column: Kd || Supplement pone.0044471.s022.xlsx, sheet "All original PM interactions" | column: Kd

| affinity of recruitment of TENC1 (TENC1 SH2 domain) | affinity of recruitment of TNS1 (TNS1 SH2 domain) | affinity of recruitment of TNS3 (TNS3 SH2 domain) | Molecule | Kd (PLCG1-C SH2 domain [2]) [µM] | Kd (PLCG1-C SH2 domain [4]) [µM] | further results |
| --- | --- | --- | --- | --- | --- | --- |
| – | – | – | CC(C)C[C@H](NC(=O)[C@H](CCC(=O)O)NC(=O)[C@H](Cc1c[nH]c2ccccc12)NC(=O)[C@@H](NC(=O)[C@@H](NC(=O)[C@@H](NC(=O)CNC(=O)[C@H](Cc1ccc(OP(=O)(O)O)cc1)NC(=O)[C@H](CO)NC(=O)[C@H](Cc1c[nH]c2ccccc12)NC(=O)[C@@H](NC(=O)[C@@H](N)CC(=O)O)C(C)C)C(C)C)[C@@H](C)O)C(C)C)C(=O)N[C@@H](CC(=O)O)C(=O)O [ErbB1 900] | 15.5 | 10.9 | Kd (PIK3R3-C SH2 domain [1]): 5.83 µM; Kd (PIK3R3-C SH2 domain [3]): 1.47 µM |
| – | – | – | CC[C@H](C)[C@H](NC(=O)[C@@H](NC(=O)[C@H](CC(C)C)NC(=O)[C@H](Cc1ccc(OP(=O)(O)O)cc1)NC(=O)[C@H](CCCNC(=N)N)NC(=O)[C@H](CCC(N)=O)NC(=O)[C@@H]1CCCN1C(=O)[C@@H](N)CC(=O)O)C(C)C)C(=O)N[C@@H](CCC(N)=O)C(=O)NCC(=O)N[C@@H](CC(=O)O)C(=O)N[C@@H](CCC(=O)O)C(=O)N[C@@H](CC(=O)O)C(=O)O [ErbB1 978] (HELM PEPTIDE1{D.P.Q.R.[O=C([C@H](Cc1ccc(OP(=O)(O)O)cc1)N[*:1])[*:2]].L.V.I.Q.G.D.E.D}$$$$V2.0) | 1.37 | 0.43 | – |
| – | – | – | CSCC[C@H](NC(=O)CNC(=O)[C@@H](N)CCCCN)C(=O)N[C@@H](CCSC)C(=O)N[C@@H](Cc1ccc(OP(=O)(O)O)cc1)C(=O)N[C@@H](CC(C)C)C(=O)N[C@@H](CCC(=O)O)C(=O)N[C@@H](CCC(=O)O)C(=O)N[C@@H](CCCNC(=N)N)C(=O)N[C@@H](CCCNC(=N)N)C(=O)N[C@@H](CC(C)C)C(=O)N[C@H](C(=O)N[C@@H](CC(=O)O)C(=O)O)C(C)C [ErbB4 833] (HELM PEPTIDE1{K.G.M.M.[O=C([C@H](Cc1ccc(OP(=O)(O)O)cc1)N[*:1])[*:2]].L.E.E.R.R.L.V.D}$$$$V2.0) | 4.73 | 3.46 | – |
| relatively high affinity | relatively high affinity | relatively high affinity | AKGMpYYLEEHGMd [ErbB3 pY823] | – | – | interaction with the SH2/PTB domain panel ([5]; KD <= 20 µM counted as interaction): reproducibly interacted at high affinity with many SH2 domains; SH2 domains found to interact ([5]; high-confidence interactions (Table S11, Figure S14)): interacted with Src kinase and tensin family SH2 domains |
| relatively high affinity | relatively high affinity | relatively high affinity | CLLDpYVREHKDNd [ErbB1 pY801] | – | – | Kd (SH2 and PTB domains): 0.56 µM |
